Earlier results in US20230233494A1, “BIOAVAILABLE SUGAR-BASED DICLOFENAC FORMULATIONS” (APR Applied Pharma Research SA, priority 2020, published 2023).
Where a name gives a salt, the structure may show the parent alone.

Conditions: at acidic pH

O=C(O)Cc1ccccc1Nc1c(Cl)cccc1Cl [diclofenac potassium, [2-(2,6-dichlorophenyl)amino]benzeneacetate, potassium salt]
Solubility: sparingly soluble
